Reference: paper PMC12254266, “Multicolored sequential resonance energy transfer for detection of simultaneous ligand binding at G protein-coupled receptors” (Nature Communications, 2025)
Several values for one entry are separate records, joined by “and”; a condition that tells them apart may be missing. Equal entries are not always repeated. Values belong to the compound of their own block, whether it stands above or below them.

Biological target: FFA1-Nluc (Homo sapiens, UniProt O14842)
Experiment: DISCo-BRET (endpoint, spectra scan, kinetics) with TUG-2591 and TUG-2597 at C terminal Nluc tagged FFA1
Type: binding
Parameters: expressed in transfected cells
Conditions: for pIC50 DISCo-BRET NBD/Nluc / pIC50 DISCo-BRET SulfoCy5/NBD: NC = No competition; for pIC50 DISCo-BRET SulfoCy5/NBD: one site model
Method: Nluc-FFA1 or FFA1-Nluc Flp-In T-REx 293 cells were plated at 50,000 cells per well in poly-D-lysine coated white 96-well plates. Cells were cultured for 24 h in the plate before medium was replaced with medium containing 100 ng/mL of doxycycline to induce receptor expression. After culturing for a further 24 h, culture medium was removed, cells washed with HBSS and incubated in HBSS for 30 min. For all DISCo-BRET formats Nano-Glo substrate was then added at a 1:800 final dilution and cells incubated for 10 min. Following substrate addition experimental set up different among the three formats: endpoint, spectra scan, and kinetics.
For endpoint experiments all fluorescent and unlabelled ligands were added to the cells and incubated for 5 min at 37 °C. Luminescent emission was then measured using a CLARIOstar microplate reader with monochromator set at 450–60 nm (Nluc), 540−60 nm (NBD) and 690–100 nm (SulfoCy5). BRET ratios were then calculated as either SulfoCy5 emission divided by NBD emission, SulfoCy5 emission divided by Nluc emission, or NBD emission divided by Nluc emission.
For spectra scan experiments all indicated fluorescent and unlabelled ligands were added to the cells and cells incubated for 5 min at 37 °C. Luminescence emissions were then measured from each well of the plate from 440 nm – 740 nm with a 5 nm resolution using a CLARIOstar microplate. Luminescent emission spectra were then normalised as a percentage of the maximal Nluc emission peak ( ~ 460 nm), then subtracted with the spectrum obtained in the presence of high concentrations of ligands competing for both binding sites to obtain specific BRET binding spectra.
In kinetic DISCo-BRET experiments plates were placed directly in a CLARIOstar plate reader set to 25 °C 10 min after Nano-Glo substrate addition. Luminescent measurements were then taken with three sequential measurements per well with the monochromator set to 450–60 nm (Nluc), 540 - 60 nm (NBD) and 690–100 nm (SulfoCy5) taken in 20 or 30 s intervals. After 5 min of background measurements, the plate reader was paused for the first indicated fluorescent ligand(s) addition, before immediately returning the plate to the reader to continue luminescence readings. After 5 min, the reader was again paused to add the second fluorescent ligand (association assays) or competing ligand(s) (dissociation assays), before immediately continuing the measurements for the indicated time. Non-specific control binding was obtained by adding the indicated competing ligand(s) 5 min prior to the addition of the first fluorescent ligand.

[1] = 100 nM TUG-2591 and […] TUG-2597

FFA1-Nluc, sequence (O14842 whole entry): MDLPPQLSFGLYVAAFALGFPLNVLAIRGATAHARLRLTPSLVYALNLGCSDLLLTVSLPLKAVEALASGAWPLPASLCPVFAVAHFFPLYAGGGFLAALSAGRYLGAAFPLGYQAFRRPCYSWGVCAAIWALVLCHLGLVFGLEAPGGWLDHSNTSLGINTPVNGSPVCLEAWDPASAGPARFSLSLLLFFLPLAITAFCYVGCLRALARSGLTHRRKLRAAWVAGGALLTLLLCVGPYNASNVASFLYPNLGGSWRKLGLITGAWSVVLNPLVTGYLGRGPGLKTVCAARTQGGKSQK

pIC50 DISCo-BRET NBD/Nluc [1]: 6.1±0.2
pIC50 DISCo-BRET SulfoCy5/NBD [1]: 6.0±0.1
'bottom' of the IC50 curve, DISCo-BRET NBD/Nluc (percentage of binding obtained in the absence of competing ligand): 10%
'bottom' of the IC50 curve, DISCo-BRET SulfoCy5/NBD (percentage of binding obtained in the absence of competing ligand, 100 nM TUG-2591 and […] TUG-2597): 3.2%
pKi DISCo-BRET SulfoCy5/NBD (using Kd TUG-2591 57 nM): 6.5±0.1
Structure (SMILES): CCCN1C(=O)c2ccccc2[C@@H](C(=O)O)[C@@H]1c1ccc(OCc2cccc(C(F)(F)F)c2)cc1 [TUG-2743]
Specific BRET (690/540), % of control (log[Ligand] -5, Figure 4Aiii, single replicate values (technical duplicate)): 6.26 % of control and 15.30 % of control and 0.00 % of control and 23.39 % of control and 7.57 % of control and 16.15 % of control and 4.80 % of control and 5.42 % of control
Specific BRET (540/450), % of control (log[Ligand] -5, Figure 4Biii, single replicate values (technical duplicate)): 61.42 % of control and 37.32 % of control and -37.32 % of control and -3.93 % of control and 3.93 % of control and 54.66 % of control and 43.23 % of control
Specific BRET (690/540), % of control (log[Ligand] -5.5, Figure 4Aiii, single replicate values (technical duplicate)): 25.12 % of control and 40.23 % of control and 23.90 % of control and 52.64 % of control and 8.58 % of control and 35.72 % of control and 22.62 % of control and 24.58 % of control
Specific BRET (540/450), % of control (log[Ligand] -5.5, Figure 4Biii, single replicate values (technical duplicate)): 68.58 % of control and 86.33 % of control and -8.16 % of control and -102.04 % of control and 41.80 % of control and 13.93 % of control and 39.36 % of control and 39.62 % of control
Specific BRET (690/540), % of control (log[Ligand] -6, Figure 4Aiii, single replicate values (technical duplicate)): 58.42 % of control and 58.33 % of control and 46.92 % of control and 53.66 % of control and 32.09 % of control and 48.03 % of control and 43.57 % of control and 46.72 % of control
Specific BRET (540/450), % of control (log[Ligand] -6, Figure 4Biii, single replicate values (technical duplicate)): 100.93 % of control and 79.17 % of control and 5.25 % of control and 9.91 % of control and 41.19 % of control and 34.87 % of control and 62.06 % of control
Specific BRET (690/540), % of control (log[Ligand] -6.5, Figure 4Aiii, single replicate values (technical duplicate)): 76.32 % of control and 72.57 % of control and 71.58 % of control and 84.17 % of control and 56.21 % of control and 64.88 % of control and 65.73 % of control and 61.96 % of control
Specific BRET (690/540), % of control (log[Ligand] -7, Figure 4Aiii, single replicate values (technical duplicate)): 89.22 % of control and 91.72 % of control and 94.47 % of control and 101.84 % of control and 86.98 % of control and 84.36 % of control and 91.26 % of control and 83.54 % of control
Specific BRET (540/450), % of control (log[Ligand] -7, Figure 4Biii, single replicate values (technical duplicate)): 106.08 % of control and 110.38 % of control and 76.97 % of control and 86.30 % of control and 79.83 % of control and 51.81 % of control and 67.53 % of control and 67.76 % of control
Specific BRET (690/540), % of control (log[Ligand] -8, Figure 4Aiii, single replicate values (technical duplicate)): 93.65 % of control and 94.71 % of control and 131.47 % of control and 106.17 % of control and 87.89 % of control and 98.79 % of control and 100.59 % of control and 92.67 % of control
Specific BRET (540/450), % of control (log[Ligand] -8, Figure 4Biii, single replicate values (technical duplicate)): 118.40 % of control and 124.70 % of control and 235.57 % of control and 32.65 % of control and 76.75 % of control and 53.35 % of control and 80.89 % of control and 68.94 % of control
Specific BRET (690/540), % of control (log[Ligand] -9, Figure 4Aiii, single replicate values (technical duplicate)): 99.33 % of control and 100.67 % of control and 26.06 % of control and 102.35 % of control and 91.83 % of control and 93.74 % of control
Specific BRET (540/450), % of control (log[Ligand] -9, Figure 4Biii, single replicate values (technical duplicate)): 129.56 % of control and 130.71 % of control and -41.98 % of control and 129.45 % of control and 107.24 % of control and 49.50 % of control and 87.02 % of control and 76.46 % of control

Structure (SMILES): CC/C=C\C/C=C\C/C=C\CCCCCCCC(=O)O [aLA, α-linolenic acid, reference compound]
pIC50 DISCo-BRET NBD/Nluc [1]: ~ 2.9
pIC50 DISCo-BRET SulfoCy5/NBD [1]: ~ 3.7
Specific BRET (540/450), % of control (log[Ligand] -3.5, Figure 4Bi, single replicate values (technical duplicate)): 354.98 % of control and 422.66 % of control and 352.08 % of control and 364.14 % of control and 218.20 % of control and 190.12 % of control and 192.71 % of control and 171.70 % of control
Specific BRET (540/450), % of control (log[Ligand] -4, Figure 4Bi, single replicate values (technical duplicate)): 179.15 % of control and 260.42 % of control and 251.25 % of control and 232.54 % of control and 120.10 % of control and 104.16 % of control and 145.44 % of control and 143.73 % of control
Specific BRET (540/450), % of control (log[Ligand] -4.5, Figure 4Bi, single replicate values (technical duplicate)): 155.59 % of control and 151.36 % of control and 193.87 % of control and 183.26 % of control and 24.44 % of control and 77.47 % of control and 109.72 % of control and 124.03 % of control
Specific BRET (690/540), % of control (log[Ligand] -4.5, technical duplicate): 81.41 % of control and 79.89 % of control and 110.36 % of control and 102.58 % of control and 55.19 % of control and 61.69 % of control and 79.93 % of control
Specific BRET (540/450), % of control (log[Ligand] -5, Figure 4Bi, single replicate values (technical duplicate)): 123.87 % of control and 127.19 % of control and 164.97 % of control and 169.96 % of control and 63.60 % of control and 42.81 % of control and 103.55 % of control and 110.64 % of control
Specific BRET (690/540), % of control (log[Ligand] -5, technical duplicate): 89.67 % of control and 83.59 % of control and 104.96 % of control and 115.39 % of control and 81.83 % of control and 84.93 % of control and 95.09 % of control and 92.80 % of control
Specific BRET (540/450), % of control (log[Ligand] -5.5, Figure 4Bi, single replicate values (technical duplicate)): 115.11 % of control and 123.26 % of control and 154.99 % of control and 156.24 % of control and 24.44 % of control and 64.99 % of control and 93.96 % of control and 98.42 % of control
Specific BRET (690/540), % of control (log[Ligand] -5.5, technical duplicate): 91.96 % of control and 95.98 % of control and 110.87 % of control and 118.78 % of control and 93.29 % of control and 101.24 % of control and 95.01 % of control and 95.16 % of control
Specific BRET (540/450), % of control (log[Ligand] -6, Figure 4Bi, single replicate values (technical duplicate)): 117.22 % of control and 113.60 % of control and 140.23 % of control and 145.01 % of control and 35.88 % of control and 33.45 % of control and 94.09 % of control and 108.27 % of control
Specific BRET (540/450), % of control (log[Ligand] -7, Figure 4Bi, single replicate values (technical duplicate)): 110.27 % of control and 80.36 % of control and 117.15 % of control and 115.28 % of control and 96.88 % of control and 77.82 % of control and 92.78 % of control and 101.71 % of control
Specific BRET (690/540), % of control (log[Ligand] -7, technical duplicate): 92.39 % of control and 86.20 % of control and 111.87 % of control and 113.13 % of control and 97.73 % of control and 97.01 % of control and 100.19 % of control and 94.25 % of control
Specific BRET (690/540), % of control (log[ligand] -6, technical duplicate): 86.09 % of control and 86.20 % of control and 111.62 % of control and 112.25 % of control and 100.93 % of control and 101.65 % of control and 99.73 % of control and 101.33 % of control
